pIC50: −log10 of the molar value.
Biological target: T1, PI3Kα H1047R (T47D cells) (Homo sapiens, UniProt P42336, H1047R)
T1 construct: endogenous in cells; host or cells: T47D cells
Test: PI3Kα cellular assay: pAKT HTRF in T47D cells after EGF stimulation
Assay type: cell-based
Conditions: for pIC50: T47D cells (PI3Kα H1047R), pAKT S473 HTRF, EGF stimulation; for T47D pAKT S473 HTRF IC50 (H1047R): T47D (H1047R) selectivity over SKBR3 (WT): selectivity of T47D (H1047R) over SKBR3 (WT) pAKT IC50
In short: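 T47D cells (PIK3CA H1047R) serum-starved 16 h, then treated 1 h at 37 °C with compound (10,000 nM top, 3-fold steps to 0.5 nM). After 10 min stimulation with 20 ng/mL EGF, cells were lysed and pAKT measured by HTRF.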

T1 sequence (P42336 whole entry H1047R): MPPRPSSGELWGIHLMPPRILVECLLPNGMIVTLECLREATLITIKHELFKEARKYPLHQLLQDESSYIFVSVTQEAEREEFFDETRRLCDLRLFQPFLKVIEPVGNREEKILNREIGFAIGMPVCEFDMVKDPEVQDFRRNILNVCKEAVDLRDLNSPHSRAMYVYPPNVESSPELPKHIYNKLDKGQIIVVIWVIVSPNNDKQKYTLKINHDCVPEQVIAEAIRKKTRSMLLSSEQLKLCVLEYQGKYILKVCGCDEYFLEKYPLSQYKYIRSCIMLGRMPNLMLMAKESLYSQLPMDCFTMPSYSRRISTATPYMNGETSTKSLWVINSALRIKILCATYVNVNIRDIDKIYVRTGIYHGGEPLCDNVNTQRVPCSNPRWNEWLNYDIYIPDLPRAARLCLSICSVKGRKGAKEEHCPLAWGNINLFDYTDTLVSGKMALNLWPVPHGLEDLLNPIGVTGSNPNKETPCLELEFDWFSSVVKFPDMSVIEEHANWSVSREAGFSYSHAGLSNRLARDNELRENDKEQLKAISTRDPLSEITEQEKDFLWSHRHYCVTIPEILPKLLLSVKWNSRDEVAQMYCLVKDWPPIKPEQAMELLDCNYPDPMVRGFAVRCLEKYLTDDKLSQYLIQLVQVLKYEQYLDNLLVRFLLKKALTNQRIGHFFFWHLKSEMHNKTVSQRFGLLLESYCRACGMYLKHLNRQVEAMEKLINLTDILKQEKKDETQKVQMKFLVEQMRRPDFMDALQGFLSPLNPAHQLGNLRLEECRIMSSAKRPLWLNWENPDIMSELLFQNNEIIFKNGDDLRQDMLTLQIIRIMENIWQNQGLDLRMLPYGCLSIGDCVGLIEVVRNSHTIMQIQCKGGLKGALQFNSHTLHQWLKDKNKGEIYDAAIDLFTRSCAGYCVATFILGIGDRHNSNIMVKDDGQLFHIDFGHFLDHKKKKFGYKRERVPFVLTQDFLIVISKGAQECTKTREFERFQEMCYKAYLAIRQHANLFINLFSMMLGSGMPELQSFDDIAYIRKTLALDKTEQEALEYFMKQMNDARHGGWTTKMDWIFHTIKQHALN
T1 sequence (P27986 whole entry partner): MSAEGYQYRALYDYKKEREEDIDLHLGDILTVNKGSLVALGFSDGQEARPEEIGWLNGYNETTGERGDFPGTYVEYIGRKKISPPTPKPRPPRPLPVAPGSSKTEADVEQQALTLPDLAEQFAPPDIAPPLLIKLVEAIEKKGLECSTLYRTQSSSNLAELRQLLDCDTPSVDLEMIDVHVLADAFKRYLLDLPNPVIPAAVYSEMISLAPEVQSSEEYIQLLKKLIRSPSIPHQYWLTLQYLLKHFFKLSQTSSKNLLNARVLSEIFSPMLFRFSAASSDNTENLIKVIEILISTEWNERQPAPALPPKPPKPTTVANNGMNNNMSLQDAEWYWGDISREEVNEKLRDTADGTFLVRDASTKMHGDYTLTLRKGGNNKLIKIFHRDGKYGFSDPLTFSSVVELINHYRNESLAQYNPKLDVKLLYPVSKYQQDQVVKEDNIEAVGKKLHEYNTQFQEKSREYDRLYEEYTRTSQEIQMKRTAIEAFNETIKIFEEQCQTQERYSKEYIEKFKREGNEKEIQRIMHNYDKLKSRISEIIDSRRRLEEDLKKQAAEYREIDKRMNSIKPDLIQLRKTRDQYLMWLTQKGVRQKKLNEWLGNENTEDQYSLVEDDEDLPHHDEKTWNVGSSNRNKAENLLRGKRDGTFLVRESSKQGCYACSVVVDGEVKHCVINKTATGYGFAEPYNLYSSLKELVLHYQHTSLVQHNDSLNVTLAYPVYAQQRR

Row | Compound | pIC50 | T47D pAKT S473 HTRF IC50 (H1047R): T47D (H1047R) selectivity over SKBR3 (WT)
1 | Cc1cc([C@@H](C)Nc2ccccc2C(=O)O)c2nc(N3CCC(C)(C)CC3)cc(=O)n2c1 [Compound 727] | < 5.70 | C (C denotes ≤5-fold)
2 | Cc1cc([C@H](C)Nc2ccccc2C(=O)O)c2nc(N3CCC(C)(C)CC3)cc(=O)n2c1 [Compound 728] | < 5.70 | C (C denotes ≤5-fold)
3 | Cc1cc(C(C)Nc2ccccc2S(N)(=O)=O)c2nc(N3C[C@@H](C)O[C@@H](C)C3)cc(=O)n2c1 (some centres unmarked) [Compound 729] | 6.30 to 7.00 | A (A denotes >20-fold)
4 | Cc1cc([C@H](C)Nc2ccccc2S(N)(=O)=O)c2nc(N3C[C@@H](C)O[C@@H](C)C3)cc(=O)n2c1 [Compound 731] | < 5.70 | C (C denotes ≤5-fold)
5 | Cc1cc([C@@H](C)Nc2ccccc2C(=O)O)c2nc(-c3cc4c(N)nn(C)c4cc3C)c(C)c(=O)n2c1 [Compound 732] | – | C (C denotes ≤5-fold)
6 | Cc1cc([C@H](C)Nc2ccccc2C(=O)O)c2nc(-c3cc4c(N)nn(C)c4cc3C)c(C)c(=O)n2c1 [Compound 733] | – | C (C denotes ≤5-fold)
7 | Cc1cc(C(C)CNc2ccccc2C(=O)O)c2nc(N3CCOCC3)cc(=O)n2c1 (centres unmarked) [Compound 735] | – | C (C denotes ≤5-fold)
8 | Cc1cc(C(C)Nc2ccccc2C(=O)O)c2nc(-c3ccc4c(c3)c(C3CC3)nn4C)cc(=O)n2c1 (centres unmarked) [Compound 736] | 6.30 to 7.00 | A (A denotes >20-fold)
9 | Cc1cc([C@@H](C)Nc2ccccc2C(=O)O)c2nc(-c3ccc4c(c3)c(C(F)(F)F)nn4C)cc(=O)n2c1 [Compound 737] | 6.30 to 7.00 | A (A denotes >20-fold)
10 | Cc1cc([C@H](C)Nc2ccccc2C(=O)O)c2nc(-c3ccc4c(c3)c(C(F)(F)F)nn4C)cc(=O)n2c1 [Compound 738] | < 5.70 | C (C denotes ≤5-fold)
11 | Cc1cc([C@H](C)Nc2ccccc2C(=O)O)c2nc(-c3ccc4c(ccn4CC(N)=O)c3)cc(=O)n2c1 [Compound 741] | – | C (C denotes ≤5-fold)
12 | Cc1cc(C(C)Nc2cccc3[nH]nnc23)c2nc(N3CCOCC3)cc(=O)n2c1 (centres unmarked) [Compound 743] | – | A (A denotes >20-fold)
13 | Cc1cc([C@@H](C)Nc2cccc3[nH]nnc23)c2nc(N3CCOCC3)cc(=O)n2c1 [Compound 744] | – | B (B denotes 20-fold≥value>5-fold)
14 | Cc1cc([C@H](C)Nc2cccc3[nH]nnc23)c2nc(N3CCOCC3)cc(=O)n2c1 [Compound 745] | – | C (C denotes ≤5-fold)
15 | Cc1cc([C@@H](C)Nc2ccccc2C(=O)O)c2nc(-c3ccc4c(c3)c(C3CC3)nn4C)cc(=O)n2c1 [Compound 748] | > 7.00 | A (A denotes >20-fold)
16 | Cc1cc([C@H](C)Nc2ccccc2C(=O)O)c2nc(-c3ccc4c(c3)c(C3CC3)nn4C)cc(=O)n2c1 [Compound 749] | < 5.70 | C (C denotes ≤5-fold)
17 | CC1=NC(C)c2cc(-c3cc(=O)n4cc(C)cc([C@@H](C)Nc5ccccc5C(=O)O)c4n3)ccc21 (some centres unmarked) [Compound 752] | – | C (C denotes ≤5-fold)
18 | Cc1cc(C(C)Nc2ccccc2C(=O)O)c2nc(-c3cc(C(N)=O)c4[nH]ccc4c3)cc(=O)n2c1 (centres unmarked) [Compound 753] | 5.70 to 6.30 | B (B denotes 20-fold≥value>5-fold)
19 | Cc1cc([C@H](C)Nc2ccccc2C(=O)O)c2nc(-c3cc(C(N)=O)c4[nH]ccc4c3)cc(=O)n2c1 [Compound 754] | < 5.70 | C (C denotes ≤5-fold)
20 | Cc1cc([C@@H](C)Nc2ccccc2C(=O)O)c2nc(C3CCN(S(N)(=O)=O)CC3)cc(=O)n2c1 [Compound 755] | < 5.70 | C (C denotes ≤5-fold)
21 | Cc1cc([C@H](C)Nc2ccccc2C(=O)O)c2nc(C3CCN(S(N)(=O)=O)CC3)cc(=O)n2c1 [Compound 756] | < 5.70 | C (C denotes ≤5-fold)

Row | Compound | pIC50 | T47D pAKT S473 HTRF IC50 (H1047R): T47D (H1047R) selectivity over SKBR3 (WT)
22 | Cc1cc(C(C)Nc2ccccc2C(=O)O)c2nc(-c3ccc4c(c3)C(C)NN4C)cc(=O)n2c1 (centres unmarked) [Compound 757] | < 5.70 | C (C denotes ≤5-fold)
23 | CNc1nn(C)c2ccc(-c3cc(=O)n4cc(C)cc(C(C)Nc5ccccc5C(=O)O)c4n3)cc12 (centres unmarked) [Compound 758] | 6.30 to 7.00 | A (A denotes >20-fold)
24 | Cc1cc(C(C)NC2=C(C(=O)O)C=CCC2)c2nc(-c3ccc(CC4CCN(C(=O)C5CC5)CC4)nc3)cc(=O)n2c1 (centres unmarked) [Compound 759] | – | C (C denotes ≤5-fold)
25 | Cc1cc([C@@H](C)Nc2ccccc2C(=O)O)c2nc(-c3cnc4c(c3)c(C)nn4C)c(C)c(=O)n2c1 [Compound 762] | > 7.00 | A (A denotes >20-fold)
26 | Cc1cc([C@H](C)Nc2ccccc2C(=O)O)c2nc(-c3cnc4c(c3)c(C)nn4C)c(C)c(=O)n2c1 [Compound 763] | 5.70 to 6.30 | B (B denotes 20-fold≥value>5-fold)
27 | Cc1cc([C@H](C)Nc2ccccc2C(=O)O)c2nc(-c3ccc4c(c3)CC(=O)N4)cc(=O)n2c1 [Compound 764] | – | A (A denotes >20-fold)
28 | Cc1cc([C@H](C)Nc2ccccc2C(=O)O)c2nc(-c3ccc4c(c3)CC(=O)N4)cc(=O)n2c1 [Compound 766] | – | C (C denotes ≤5-fold)
29 | CNc1nn(C)c2ccc(-c3cc(=O)n4cc(C)cc([C@@H](C)Nc5ccccc5C(=O)O)c4n3)cc12 [Compound 767] | > 7.00 | A (A denotes >20-fold)
30 | CNc1nn(C)c2ccc(-c3cc(=O)n4cc(C)cc([C@H](C)Nc5ccccc5C(=O)O)c4n3)cc12 [Compound 768] | 6.30 to 7.00 | A (A denotes >20-fold)
31 | Cc1cc(C(C)Nc2ccccc2C(=O)O)c2nc(-c3ccc4c(c3)c(C(F)F)nn4C)cc(=O)n2c1 (centres unmarked) [Compound 769] | 6.30 to 7.00 | A (A denotes >20-fold)
32 | Cc1cc(C(C)Nc2ccccc2C(=O)O)c2nc(-n3cc(C(N)=O)c4ccccc43)cc(=O)n2c1 (centres unmarked) [Compound 771] | 5.70 to 6.30 | B (B denotes 20-fold≥value>5-fold)
33 | Cc1cc([C@H](C)Nc2ccccc2C(=O)O)c2nc(-n3cc(C(N)=O)c4ccccc43)cc(=O)n2c1 [Compound 772] | < 5.70 | C (C denotes ≤5-fold)
34 | Cc1cc(C(C)Nc2ccccc2C(=O)O)c2nc(-n3cnc4cc(O)ccc43)cc(=O)n2c1 (centres unmarked) [Compound 773] | 5.70 to 6.30 | B (B denotes 20-fold≥value>5-fold)
35 | Cc1cc([C@H](C)Nc2ccccc2C(=O)O)c2nc(-n3cnc4cc(O)ccc43)cc(=O)n2c1 [Compound 774] | < 5.70 | C (C denotes ≤5-fold)
36 | Cc1cc([C@@H](C)Nc2ccccc2C(=O)O)c2nc(-c3ccc4c(c3)c(C)c(C)n4C)cc(=O)n2c1 [Compound 775] | > 7.00 | A (A denotes >20-fold)
37 | CC1=CC2C(=O)C=C([C@H]3CC[C@H](CC4CC[C@H](O)C4)CC3)N=C2C([C@H](C)Nc2ccccc2C(=O)O)=C1 (some centres unmarked) [Compound 778] | < 5.70 | C (C denotes ≤5-fold)
38 | Cc1cc(C(C)Nc2ccccc2C(=O)O)c2nc(N3C[C@H](C)C[C@H](C(F)F)C3)cc(=O)n2c1 (some centres unmarked) [Compound 781] | 6.30 to 7.00 | A (A denotes >20-fold)
39 | Cc1cc(C(C)Nc2cccc3c2=NCN=3)c2nc(N3CCOCC3)cc(=O)n2c1 (centres unmarked) [Compound 782] | < 5.70 | C (C denotes ≤5-fold)
40 | Cc1cc([C@@H](C)NC2=C(C(=O)O)C=CCC2)c2nc(-c3ccc(CC4CCN(C(=O)C5CC5)CC4)nc3)cc(=O)n2c1 [Compound 783] | < 5.70 | C (C denotes ≤5-fold)
41 | Cc1cc([C@H](C)NC2=C(C(=O)O)C=CCC2)c2nc(-c3ccc(CC4CCN(C(=O)C5CC5)CC4)nc3)cc(=O)n2c1 [Compound 784] | < 5.70 | C (C denotes ≤5-fold)

From US20260132129A1 (Genesis Therapeutics, Inc., priority 2022, published 2026)
